Inhibition data for 25 compounds are collected here from patent US7674801B2 (AstraZeneca AB, priority 2006, dated 2010).

Sequence of S. aureus (SAU) GyrB ATPase (P0A0K8 whole entry): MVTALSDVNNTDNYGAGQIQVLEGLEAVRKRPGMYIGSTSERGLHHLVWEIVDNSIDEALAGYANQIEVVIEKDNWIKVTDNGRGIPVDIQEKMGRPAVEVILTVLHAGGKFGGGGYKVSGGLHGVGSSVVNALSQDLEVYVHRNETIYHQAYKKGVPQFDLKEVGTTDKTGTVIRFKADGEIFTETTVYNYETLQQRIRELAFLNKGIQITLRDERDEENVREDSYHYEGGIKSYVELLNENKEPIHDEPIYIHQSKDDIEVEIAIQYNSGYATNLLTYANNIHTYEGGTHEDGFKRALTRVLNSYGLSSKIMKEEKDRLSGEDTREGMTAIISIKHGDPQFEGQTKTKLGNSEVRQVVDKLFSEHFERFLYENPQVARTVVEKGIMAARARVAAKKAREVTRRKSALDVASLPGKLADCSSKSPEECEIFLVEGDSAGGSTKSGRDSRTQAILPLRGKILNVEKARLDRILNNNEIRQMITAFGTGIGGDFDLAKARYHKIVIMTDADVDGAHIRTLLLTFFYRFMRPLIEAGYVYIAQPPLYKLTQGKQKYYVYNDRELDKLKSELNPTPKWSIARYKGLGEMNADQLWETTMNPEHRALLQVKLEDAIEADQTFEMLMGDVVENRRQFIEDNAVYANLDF
Sequence of S. aureus (SAU) GyrB ATPase (P0AES4 whole entry, further chain): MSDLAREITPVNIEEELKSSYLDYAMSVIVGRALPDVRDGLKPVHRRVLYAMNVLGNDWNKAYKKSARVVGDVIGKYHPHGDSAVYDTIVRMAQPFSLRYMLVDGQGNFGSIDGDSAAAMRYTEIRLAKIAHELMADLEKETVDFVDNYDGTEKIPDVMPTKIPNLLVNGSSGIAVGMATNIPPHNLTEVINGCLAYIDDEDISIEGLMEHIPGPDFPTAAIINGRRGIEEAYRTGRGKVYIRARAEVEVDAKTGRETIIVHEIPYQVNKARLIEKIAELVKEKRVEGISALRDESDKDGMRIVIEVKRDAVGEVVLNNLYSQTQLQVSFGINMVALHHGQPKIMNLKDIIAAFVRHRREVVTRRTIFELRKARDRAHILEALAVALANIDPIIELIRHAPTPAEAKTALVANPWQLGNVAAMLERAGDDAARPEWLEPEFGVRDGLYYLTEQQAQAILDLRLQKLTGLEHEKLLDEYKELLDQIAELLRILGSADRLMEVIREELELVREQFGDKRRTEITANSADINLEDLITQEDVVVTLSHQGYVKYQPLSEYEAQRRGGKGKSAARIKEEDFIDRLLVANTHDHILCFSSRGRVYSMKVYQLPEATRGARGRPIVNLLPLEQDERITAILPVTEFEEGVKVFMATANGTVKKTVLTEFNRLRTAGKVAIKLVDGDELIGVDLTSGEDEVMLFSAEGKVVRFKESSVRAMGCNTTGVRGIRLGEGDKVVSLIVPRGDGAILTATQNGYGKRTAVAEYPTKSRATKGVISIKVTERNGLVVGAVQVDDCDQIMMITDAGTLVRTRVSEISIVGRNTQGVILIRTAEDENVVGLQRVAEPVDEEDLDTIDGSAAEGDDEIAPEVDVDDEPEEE

For one assay, the target named is S. aureus (SAU) GyrB ATPase (Staphylococcus aureus, UniProt P0A0K8). In words: S. aureus GyrB ATPase inhibition, ammonium molybdate/malachite green phosphate detection assay. Type of assay: biochemical. To be noted: compound concentration 5 μM (values marked *). The essentials:
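E. coli GyrA and S. aureus GyrB (1.25 nM each) with 500 μM ATP and 5 μg/ml sheared salmon sperm DNA in 50 mM Hepes pH 7.5, 8.0 mM MgCl2. Released phosphate detected with ammonium molybdate/malachite green at 650 nm; 2% DMSO as 0% and 2 μM novobiocin as 100% inhibition; IC50 from 10 concentrations.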
For the compound `CCNC(=O)Nc1cccc(-c2ccc(C(=O)OCC)cc2)n1` [Example 16, Ethyl 4-(6-{[(ethylamino)carbonyl]amino}pyridin-2-yl)benzoate], the inhibition at 5 µM turned out to be 1.28%.

The assay is the same for the next values; noted with them: read-out: S. aureus (SAU) GyrB ATPase % Inhibition, compound concentration 12.5 μM.
Regarding `CCNC(=O)Nc1cc(-c2nc(C(F)(F)F)cs2)c(-c2cncc(C(=O)NC(C)(C)C)c2)cn1` [Example 123, N-(tert-Butyl)-6′-{[(ethylamino)carbonyl]amino}-4′-[4-(trifluoromethyl)-1,3-thiazol-2-yl]-3,3′-bipyridine-5-carboxamide], the inhibition at 12.5 µM was 96.2%.

As to `CCNC(=O)Nc1cc(-c2nc(CC)cs2)c(-c2cncc(C(=O)N(C)C)c2)cn1` [Example 161, 6′-{[(ethylamino)carbonyl]amino}-4′-(4-ethyl-1,3-thiazol-2-yl)-N,N-dimethyl-3,3′-bipyridine-5-carboxamide], the inhibition at 12.5 µM was 101%.

As to `CCNC(=O)Nc1ccc(-c2nc(C(=O)NC)c(C(=O)O)s2)cn1` [Example 24, 2-(6-{[(Ethylamino)carbonyl]amino}pyridin-3-yl)-4-[(methylamino)carbonyl]-1,3-thiazole-5-carboxylic acid], the inhibition at 12.5 µM was found to be 99.1%.

With `CCNC(=O)Nc1cc(-c2ccc(F)nc2)c(-c2cncc(C(=O)O)c2)cn1` [Example 104], the inhibition at 12.5 µM came out at 89.9%.

For the compound `CCNC(=O)Nc1ccc(-c2nc3cccc(C(=O)OCC)c3s2)cn1` [Example 4, Ethyl 2-(6-{[(ethylamino)carbonyl]amino}pyridin-3-yl)-1,3-benzothiazole-7-carboxylate], the inhibition at 12.5 µM worked out at 84%.

For the compound `CCCCNC(=O)c1nc(-c2cnc(NC(=O)NCC)cc2-c2ccccc2)sc1C(=O)O` [Example 98, 4-[(Butylamino)carbonyl]-2-(6-{[(ethylamino)carbonyl]amino}-4-phenylpyridin-3-yl)-1,3-thiazole-5-carboxylic acid], the inhibition at 12.5 µM was 99.3%.

For `CCNC(=O)Nc1ccc(-c2nc(C(=O)N(C)C)c(C(=O)NCC)s2)cn1` [Example 54, N^5-Ethyl-2-(6-{[(ethylamino)carbonyl]amino}pyridin-3-yl)-N^4,N^4-dimethyl-1,3-thiazole-4,5-dicarboxamide], the inhibition at 12.5 µM amounted to 89.8%.

As for `CCNC(=O)Nc1ccc(-c2cncc(C(=O)OCC)c2)cn1` [Example 3, Ethyl 6′-{[(ethylamino)carbonyl]amino}-3,3′-bipyridine-5-carboxylate], the inhibition at 12.5 µM was 55%.

Turning to `CCNC(=O)Nc1ccc(-c2ccc3nc(C(=O)O)cn3c2)cn1` [Example 28, 6-(6-{[(Ethylamino)carbonyl]amino}pyridin-3-yl)imidazo[1,2-a]pyridine-2-carboxylic acid], the inhibition at 12.5 µM was 96.8%.

Take `CCNC(=O)Nc1ccc(-c2nc(C(=O)N(C)C)c(C(=O)NC3CCCC3)s2)cn1` [Example 58, 2-[6-(3-Ethyl-ureido)-pyridin-3-yl]-thiazole-4,5-dicarboxylic acid 5-yclopentylamide 4-dimethylamide]: the inhibition at 12.5 µM worked out at 89.3%.

For the compound `CCNC(=O)Nc1cc(-c2nc(C(F)(F)F)cs2)c(-c2ncc(C(=O)NC)s2)cn1` [Example 127, 2-{6-{[(Ethylamino)carbonyl]amino}-4-[4-(trifluoromethyl)-1,3-thiazol-2-yl]pyridin-3-yl}-N-methyl-1,3-thiazole-5-carboxamide], the inhibition at 12.5 µM turned out to be 97%.

Regarding `CCNC(=O)Nc1ccc(-c2nc(C(C)=O)c(C(N)=O)s2)cn1` [Example 154, 4-acetyl-2-(6-{[(ethylamino)carbonyl]amino}pyridin-3-yl)-1,3-thiazole-5-carboxamide], the inhibition at 12.5 µM amounted to 99.8%.

As to `CCNC(=O)Nc1ccc(-c2nc(-c3nccn3CCOC)c(C(=O)O)s2)cn1` [Example 89, 2-(6-{[(ethylamino)carbonyl]amino}pyridin-3-yl)-4-[1-(2-methoxyethyl)-1H-imidazol-2-yl]-1,3-thiazole-5-carboxylic acid], the inhibition at 12.5 µM came to 86.1%.

For `CCC(C)NC(=O)Nc1cc(-c2nc(C(F)(F)F)cs2)c(-c2cncc(C(=O)O)c2)cn1` (stereo not shown) [Example 106, 6′-{[(Sec-butylamino)carbonyl]amino}-4′-[4-(trifluoromethyl)-1,3-thiazol-2-yl]-3,3′-bipyridine-5-carboxylic acid], the inhibition at 12.5 µM was 93.1%.

Regarding `CCCCNC(=O)c1nc(-c2ccc(NC(=O)NCC)nc2)sc1C(=O)N(C)C` [Example 109, N^4-Butyl-2-(6-{[(ethylamino)carbonyl]amino}pyridin-3-yl)-N^5,N^5-dimethyl-1,3-thiazole-4,5-dicarboxamide], the inhibition at 12.5 µM is 99.5%.

`CCNC(=O)Nc1ccc(-c2nc(C(=O)N[C@@H](C)COC)c(C(=O)OCC)s2)cn1` [Example 74, Ethyl 2-(6-{[(ethylamino)carbonyl]amino}pyridin-3-yl)-4-({[(1S)-2-methoxy-1-methylethyl]amino}carbonyl)-1,3-thiazole-5-carboxylate]: the inhibition at 12.5 µM stood at 0.95%.

Regarding `CCNC(=O)Nc1ccc(-c2cccc(C(=O)O)c2)cn1` [Example 22, 3-(6-{[(Ethylamino)carbonyl]amino}pyridin-3-yl)benzoic acid], the inhibition at 12.5 µM was found to be 99.7%.

With `CCNC(=O)Nc1cc(-c2nc(CC)cs2)c(-c2cncc(C(=O)NC)c2)cn1` [Example 107, 6′-{[(Ethylamino)carbonyl]amino}-4′-(4-ethyl-1,3-thiazol-2-yl)-N-methyl-3,3′-bipyridine-5-carboxamide], the inhibition at 12.5 µM was determined as 84%.

For the compound `CCNC(=O)Nc1ccc(-c2nc(C(=O)NC(C)(C)C)c(C(=O)N(C)C)s2)cn1` [Example 110, N^4-(tert-Butyl)-2-(6-{[(ethylamino)carbonyl]amino}pyridin-3-yl)-N^5,N^5-dimethyl-1,3-thiazole-4,5-dicarboxamide], the inhibition at 12.5 µM came to 101%.

Take `CCNC(=O)Nc1cc(-c2nc(CC)cs2)c(-c2cncc(C(=O)O)c2)cn1` [Example 99, 6′-{[(Ethylamino)carbonyl]amino}-4′-(4-ethyl-1,3-thiazol-2-yl)-3,3′-bipyridine-5-carboxylic acid]: the inhibition at 12.5 µM is 102%.

`CCCNC(=O)c1nc(-c2ccc(NC(=O)NCC)nc2)sc1C(=O)N(C)C` [Example 64, 2-[6-(3-ethyl-ureido)-pyridin-3-yl]-thiazole-4,5-dicarboxylic acid 5-dimethylamide 4-propylamide]: the inhibition at 12.5 µM was 92.6%.

With `CCNC(=O)Nc1cc(-c2ccccc2)c(-c2cncc(C(=O)O)c2)cn1` [Example 95, 6′-{[(Ethylamino)carbonyl]amino}-4′-phenyl-3,3′-bipyridine-5-carboxylic acid], the inhibition at 12.5 µM was determined as 100%.

For `CCNC(=O)Nc1ccc(-c2nc(C(=O)N[C@@H](C)COC)c(C(=O)O)s2)cn1` [Example 92, 2-(6-{[(ethylamino)carbonyl]amino}pyridin-3-yl)-4-({[(1S)-2-methoxy-1-methylethyl]amino}carbonyl)-1,3-thiazole-5-carboxylic acid], the inhibition at 12.5 µM turned out to be 101%.

Consider `CCNC(=O)Nc1ccc(-c2nc(C(=O)NC)c(C(N)=O)s2)cn1` [Example 115, 2-(6-{[(Ethylamino)carbonyl]amino}pyridin-3-yl)-N^4-methyl-1,3-thiazole-4,5-dicarboxamide], for which the inhibition at 12.5 µM is 99.2%.
